Earlier results in US20050181036A1 (Research Development Foundation, priority 2003, published 2005).
“Also recorded” adds a separate entry of the source.

In the case of COc1cc(/C=C/C(=O)CC(=O)/C=C/c2ccc(O)c(OC)c2)ccc1O [Curcumin, diferuloylmethane], the solubility in dimethylsulfoxide (dimethylsulfoxide) is listed as “soluble”, the solubility in ethanol (ethanol) is listed as “soluble” and the solubility in ether (ether) is listed as “insoluble”. For the same compound, the solubility in water (water) was “insoluble; also recorded: not water-soluble”.
